Some test systems named below: SR leukemia; MALME-3M melanoma; A549 NSCLC; SK-MEL-28 melanoma; NCI-H226 lung; SF-295 CNS; SK-MEL-5 melanoma; SN12C renal; OVCAR-4 ovarian; MDA-MB-231 breast.
Holding throughout (assay): NCI anticancer screen, dose series, 48 h

These results are taken from PubChem BioAssay (NCI).

Molecules are shown by their SMILES.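 Values below derive from 48-hour exposures of cells grown in 96-well plates, with endpoints linearly interpolated between the two concentrations bracketing the appropriate inhibition level. The concentration for 50% growth inhibition is given as GI50. At the TGI there is no net growth.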

As to `COc1cc(-c2nc3sccn3c2-c2ccnc(NCCNS(=O)(=O)c3ccc(F)cc3)n2)ccc1F`, the GI50 in the test with SR leukemia is 2.51 µM; in the test on MALME-3M melanoma, 2.07 µM; with A549 NSCLC, 2.44 µM; in the test with SK-MEL-28 melanoma, 3.28 µM; in the test with NCI-H226 lung it was 1.95 µM; in the test on SF-295 CNS, 2.87 µM. Besides, the GI50 is 1.28 µM in the test with SK-MEL-5 melanoma, 1.89 µM with SN12C renal, 3.4 µM in the test with OVCAR-4 ovarian and 2.35 µM with MDA-MB-231 breast. Further, the TGI in the test with SR leukemia is above 100 µM; with MALME-3M melanoma it was 7.38 µM; in the test on A549 NSCLC, above 100 µM; in the test on SK-MEL-28 melanoma, above 100 µM; in the test with NCI-H226 lung, 6.05 µM; in the test on SF-295 CNS, above 100 µM. Besides, the TGI was 2.63 µM in the test with SK-MEL-5 melanoma, above 100 µM in the test on SN12C renal, above 100 µM in the test on OVCAR-4 ovarian and above 100 µM with MDA-MB-231 breast.
In the case of `c1ccc(Nc2ncc(-c3ccccc3)o2)cc1`, the GI50 was above 20.6 µM with SR leukemia; above 25 µM in the test on MALME-3M melanoma; above 25 µM in the test with A549 NSCLC; above 25 µM in the test with SK-MEL-28 melanoma; above 25 µM in the test with NCI-H226 lung; above 25 µM with SF-295 CNS. Moreover, the GI50 is above 25 µM in the test with SK-MEL-5 melanoma, above 25 µM in the test on SN12C renal, above 21.1 µM with OVCAR-4 ovarian and above 25 µM in the test with MDA-MB-231 breast. The TGI in the test on SR leukemia, in the test with MALME-3M melanoma, in the test with A549 NSCLC, in the test with SK-MEL-28 melanoma, with NCI-H226 lung and in the test with SF-295 CNS was above 25 µM each time. Also, the TGI with SK-MEL-5 melanoma, in the test with SN12C renal, in the test on OVCAR-4 ovarian and with MDA-MB-231 breast was above 25 µM throughout.
For `NC(=S)N/N=C1\c2cc(Cl)ccc2-c2c1cc(Cl)cc2[N+](=O)[O-]`, the GI50 with SR leukemia is 4.87 µM; with MALME-3M melanoma, 9.26 µM; in the test with A549 NSCLC it was 4.05 µM; in the test on SK-MEL-28 melanoma, 3.83 µM; in the test with NCI-H226 lung it was 5.25 µM; in the test on SF-295 CNS, 3.57 µM. Besides, the GI50 is 2.77 µM in the test on SK-MEL-5 melanoma, 4.58 µM in the test on SN12C renal, 1.92 µM in the test with OVCAR-4 ovarian and 3.85 µM in the test on MDA-MB-231 breast. Moreover, the TGI in the test on SR leukemia was above 100 µM; with MALME-3M melanoma it was 87.4 µM; with A549 NSCLC it was above 100 µM; in the test with SK-MEL-28 melanoma it was above 100 µM; in the test on NCI-H226 lung, above 100 µM; in the test with SF-295 CNS, 73.7 µM. Further, the TGI in the test with SK-MEL-5 melanoma was 9.28 µM; in the test with SN12C renal it was above 100 µM; with OVCAR-4 ovarian, 8.35 µM; in the test on MDA-MB-231 breast, 34.9 µM.
Turning to `COC(=O)/C=C/c1cc(OC(C)=O)c2c(c1)[C@@H](C(=O)OC)[C@H](c1ccc(OC(C)=O)c(OC(C)=O)c1)O2`, the GI50 is 0.0281 µM with SR leukemia; 0.0512 µM in the test on MALME-3M melanoma; 0.248 µM in the test on A549 NSCLC; 0.852 µM with SK-MEL-28 melanoma; 1.71 µM with NCI-H226 lung; 0.285 µM in the test on SF-295 CNS. The GI50 was 0.0493 µM with SK-MEL-5 melanoma, 0.121 µM in the test with SN12C renal, 0.34 µM in the test on OVCAR-4 ovarian and 0.305 µM in the test on MDA-MB-231 breast. The TGI is above 49.6 µM with SR leukemia; 48.7 µM in the test on MALME-3M melanoma; above 78.8 µM in the test on A549 NSCLC; 80.8 µM in the test on SK-MEL-28 melanoma; 27.4 µM in the test with NCI-H226 lung; 11.4 µM in the test with SF-295 CNS. Further, the TGI in the test on SK-MEL-5 melanoma turned out to be 2.34 µM; in the test on SN12C renal it was 99.7 µM; in the test on OVCAR-4 ovarian, 38.2 µM; in the test with MDA-MB-231 breast, 34.4 µM.
On to `COc1cc2c(cc1OC)-c1cc(OC)c(OC)cc1C(CN(C)C)C2` (stereo not given), for which the GI50 in the test with SR leukemia, with MALME-3M melanoma, in the test with A549 NSCLC, with SK-MEL-28 melanoma, in the test with NCI-H226 lung and in the test on SF-295 CNS was above 10 µM in each case. In addition, the GI50 in the test on SK-MEL-5 melanoma, with SN12C renal, with OVCAR-4 ovarian and with MDA-MB-231 breast was above 10 µM in each case. Moreover, the TGI in the test with SR leukemia, with MALME-3M melanoma, with A549 NSCLC, in the test on SK-MEL-28 melanoma, with NCI-H226 lung and with SF-295 CNS was above 10 µM throughout. In addition, the TGI in the test on SK-MEL-5 melanoma, in the test with SN12C renal, in the test on OVCAR-4 ovarian and in the test on MDA-MB-231 breast was above 10 µM throughout.
With `COCCn1cc(-c2nc(-c3cc4cccnc4[nH]3)cs2)c2cc(OC)ccc21`, the GI50 was 1.21 µM in the test with SR leukemia; 7.99 µM in the test with MALME-3M melanoma; 3.79 µM in the test on A549 NSCLC; 5.21 µM in the test with SK-MEL-28 melanoma; 1.57 µM with NCI-H226 lung; 2.24 µM in the test with SF-295 CNS. In addition, the GI50 was 4.47 µM in the test on SK-MEL-5 melanoma, 4.64 µM with SN12C renal, 0.0278 µM in the test on OVCAR-4 ovarian and 1.76 µM in the test on MDA-MB-231 breast. For the same compound, the TGI is above 29.7 µM with SR leukemia; above 80.6 µM in the test on MALME-3M melanoma; above 100 µM with A549 NSCLC; above 100 µM with SK-MEL-28 melanoma; 27.6 µM with NCI-H226 lung; 6.54 µM with SF-295 CNS. The TGI in the test on SK-MEL-5 melanoma was 21.4 µM; in the test on SN12C renal it was above 100 µM; with OVCAR-4 ovarian it was above 30.8 µM; with MDA-MB-231 breast, above 79.9 µM.
Take `C/C=C/[C@@H]1O[C@@H]2COC(=O)C2=C[C@@H]1O`: the GI50 with SR leukemia was 9.61 µM; with MALME-3M melanoma, 1.96 µM; in the test with A549 NSCLC it was 20.6 µM; in the test on SK-MEL-28 melanoma, 15.3 µM; in the test on NCI-H226 lung it was 17.6 µM; in the test on SF-295 CNS, 29.9 µM. For the same compound, the GI50 with SK-MEL-5 melanoma was 16.7 µM; in the test on SN12C renal, 15.4 µM; in the test with OVCAR-4 ovarian it was 16.1 µM; in the test on MDA-MB-231 breast, 19.6 µM. The TGI in the test with SR leukemia was above 100 µM; with MALME-3M melanoma, 6.85 µM; with A549 NSCLC, 40.4 µM; in the test on SK-MEL-28 melanoma, 32.9 µM; with NCI-H226 lung, 42 µM; in the test on SF-295 CNS, above 56.4 µM. Moreover, the TGI is 31.5 µM in the test with SK-MEL-5 melanoma, 31.4 µM in the test with SN12C renal, 42.8 µM with OVCAR-4 ovarian and 39.7 µM with MDA-MB-231 breast.
For `CC(=O)OC1(C)N=NC2(CCCCC2)O1` (stereo not given), the TGI in the test with SR leukemia, in the test on MALME-3M melanoma, in the test with A549 NSCLC, in the test on SK-MEL-28 melanoma, in the test with NCI-H226 lung and in the test on SF-295 CNS was above 100 µM in each case. Also, the TGI with SK-MEL-5 melanoma, with SN12C renal, in the test on OVCAR-4 ovarian and in the test with MDA-MB-231 breast was above 100 µM throughout.
Consider `CN1CCN(C(=O)COc2ccc(C34CC5CC(CC(C5)C3)C4)cc2)CC1`, for which the GI50 in the test with SR leukemia was 4.62 µM; with MALME-3M melanoma, 7.64 µM; in the test on A549 NSCLC, 13 µM; in the test with SK-MEL-28 melanoma, 12.7 µM; in the test on NCI-H226 lung it was 14 µM; in the test on SF-295 CNS, 13.5 µM. Also, the GI50 in the test with SK-MEL-5 melanoma was 10.3 µM; with SN12C renal, 12.6 µM; in the test on OVCAR-4 ovarian it was 20.8 µM; in the test with MDA-MB-231 breast, 13 µM. Also, the TGI with SR leukemia was 97.4 µM; in the test on MALME-3M melanoma, 22.3 µM; in the test on A549 NSCLC, 37.2 µM; in the test on SK-MEL-28 melanoma, 26.2 µM; with NCI-H226 lung, 37.4 µM; in the test with SF-295 CNS it was 27.8 µM. For the same compound, the TGI in the test on SK-MEL-5 melanoma was 22.7 µM; in the test on SN12C renal it was 26.1 µM; in the test on OVCAR-4 ovarian it was 76.9 µM; in the test with MDA-MB-231 breast, 27.8 µM.
As to `CC(=O)OCc1ccc2c(c1)C(O)NC(=O)O2` (stereo not given), the TGI with SR leukemia, with MALME-3M melanoma, with A549 NSCLC, in the test with SK-MEL-28 melanoma, with NCI-H226 lung and in the test on SF-295 CNS was above 100 µM in each case. Further, the TGI in the test with SK-MEL-5 melanoma, in the test on SN12C renal, in the test with OVCAR-4 ovarian and in the test with MDA-MB-231 breast was above 100 µM throughout.
Take `O=C1C(Br)=C(Br)C(=O)c2ccc(=O)ccc21`: the TGI is 45 µM in the test with SR leukemia; 37.4 µM with MALME-3M melanoma; above 100 µM in the test with A549 NSCLC; 52 µM with SK-MEL-28 melanoma; above 100 µM in the test with NCI-H226 lung; 50.9 µM with SF-295 CNS. Moreover, the TGI with SK-MEL-5 melanoma was 44.4 µM; in the test with SN12C renal, 33.7 µM; in the test with OVCAR-4 ovarian it was 32.7 µM; in the test on MDA-MB-231 breast, 35.9 µM.
In the case of `Cc1ccc(-c2nc(N3CCNCC3)c3oc(-c4ccc(C)cc4)nc3n2)cc1`, the GI50 in the test on SR leukemia was 0.371 µM; in the test with MALME-3M melanoma, 7.23 µM; in the test with A549 NSCLC it was 3.35 µM; in the test on SK-MEL-28 melanoma, 6.14 µM; in the test on NCI-H226 lung, above 44.1 µM; in the test on SF-295 CNS, 12.1 µM. The GI50 in the test on SK-MEL-5 melanoma was above 39.2 µM; with SN12C renal, 1.88 µM; in the test with OVCAR-4 ovarian, 2.22 µM; in the test with MDA-MB-231 breast it was 1.77 µM. The TGI in the test on SR leukemia is 1.85 µM; with MALME-3M melanoma, 18.9 µM; in the test with A549 NSCLC, 12.4 µM; in the test on SK-MEL-28 melanoma it was 11.5 µM; in the test with NCI-H226 lung, above 64.7 µM; in the test on SF-295 CNS, 52.6 µM. The TGI was above 53.9 µM in the test on SK-MEL-5 melanoma, 3.61 µM in the test on SN12C renal, 10.6 µM in the test on OVCAR-4 ovarian and 3.45 µM with MDA-MB-231 breast.
